# Experimental data published in ChEMBL document CHEMBL5375979, “Chemical, Biochemical, Cellular, and Physiological Characterization of Leucettinib-21, a Down Syndrome and Alzheimer's Disease Drug Candidate” (J Med Chem, 2023).
# “And” between values parts separate entries of the source, which are not always exact repeats. Equal values may be shown once.
# Columns and labels:
# [1] = target: Dual specificity protein kinase CLK1 (Homo sapiens, UniProt P49759)
# [2] = target: Dual specificity tyrosine-phosphorylation-regulated kinase 1B (Homo sapiens, UniProt Q9Y463)
# [3] = target: Dual specificity tyrosine-phosphorylation-regulated kinase 1A (Homo sapiens, UniProt Q13627)
# [4] = target: Dual specificity protein kinase CLK4 (Homo sapiens, UniProt Q9HAZ1)
# [5] = target: Cyclin-dependent kinase 5 (Homo sapiens, UniProt Q00535)
# Casein kinase I = type: protein assay, Homo sapiens
# [6] = target: T1, Dual specificity tyrosine-phosphorylation-regulated kinase 2 (Homo sapiens, UniProt Q92630)
# T1 sequence (Q92630 whole entry): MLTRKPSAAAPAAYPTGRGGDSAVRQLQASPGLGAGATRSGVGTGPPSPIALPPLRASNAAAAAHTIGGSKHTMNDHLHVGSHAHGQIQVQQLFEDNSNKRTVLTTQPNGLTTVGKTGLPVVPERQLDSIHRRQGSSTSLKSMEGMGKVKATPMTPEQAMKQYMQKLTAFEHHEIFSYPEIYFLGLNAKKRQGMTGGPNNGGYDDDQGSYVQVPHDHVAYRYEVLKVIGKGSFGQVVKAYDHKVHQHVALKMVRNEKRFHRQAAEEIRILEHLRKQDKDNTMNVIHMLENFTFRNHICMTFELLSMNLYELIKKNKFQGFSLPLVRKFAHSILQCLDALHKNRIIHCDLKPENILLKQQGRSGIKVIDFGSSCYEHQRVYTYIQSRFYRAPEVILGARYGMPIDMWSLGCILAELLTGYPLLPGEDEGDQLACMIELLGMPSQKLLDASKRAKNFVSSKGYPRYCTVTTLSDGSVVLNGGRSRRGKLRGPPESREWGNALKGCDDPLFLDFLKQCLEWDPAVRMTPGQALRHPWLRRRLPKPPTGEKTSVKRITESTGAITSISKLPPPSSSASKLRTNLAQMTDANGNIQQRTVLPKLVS
# [7] = target: Dual specificity protein kinase CLK3 (Homo sapiens, UniProt P49761)
# [8] = target: Glycogen synthase kinase-3 (Homo sapiens, UniProt P49840+P49841); type: protein assay
# [9] = target: T2, Dual specificity tyrosine-phosphorylation-regulated kinase 4 (Homo sapiens, UniProt Q9NR20)
# T2 sequence (Q9NR20 whole entry): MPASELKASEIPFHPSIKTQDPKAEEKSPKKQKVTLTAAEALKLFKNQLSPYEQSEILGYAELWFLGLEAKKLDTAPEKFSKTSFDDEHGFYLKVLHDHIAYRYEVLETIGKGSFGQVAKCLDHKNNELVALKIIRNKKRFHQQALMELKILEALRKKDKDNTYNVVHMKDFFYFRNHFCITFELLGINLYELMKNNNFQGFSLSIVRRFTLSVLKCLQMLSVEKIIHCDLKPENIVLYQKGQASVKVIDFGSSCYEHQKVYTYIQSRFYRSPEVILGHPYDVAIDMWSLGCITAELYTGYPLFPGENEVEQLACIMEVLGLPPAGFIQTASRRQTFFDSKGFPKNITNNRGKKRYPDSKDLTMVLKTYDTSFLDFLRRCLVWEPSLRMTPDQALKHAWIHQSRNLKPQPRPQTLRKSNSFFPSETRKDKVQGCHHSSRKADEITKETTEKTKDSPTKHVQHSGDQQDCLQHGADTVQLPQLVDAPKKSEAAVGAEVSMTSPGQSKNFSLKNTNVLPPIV
# [10] = target: T3, Dual specificity tyrosine-phosphorylation-regulated kinase 3 (Homo sapiens, UniProt O43781)
# T3 sequence (O43781 whole entry): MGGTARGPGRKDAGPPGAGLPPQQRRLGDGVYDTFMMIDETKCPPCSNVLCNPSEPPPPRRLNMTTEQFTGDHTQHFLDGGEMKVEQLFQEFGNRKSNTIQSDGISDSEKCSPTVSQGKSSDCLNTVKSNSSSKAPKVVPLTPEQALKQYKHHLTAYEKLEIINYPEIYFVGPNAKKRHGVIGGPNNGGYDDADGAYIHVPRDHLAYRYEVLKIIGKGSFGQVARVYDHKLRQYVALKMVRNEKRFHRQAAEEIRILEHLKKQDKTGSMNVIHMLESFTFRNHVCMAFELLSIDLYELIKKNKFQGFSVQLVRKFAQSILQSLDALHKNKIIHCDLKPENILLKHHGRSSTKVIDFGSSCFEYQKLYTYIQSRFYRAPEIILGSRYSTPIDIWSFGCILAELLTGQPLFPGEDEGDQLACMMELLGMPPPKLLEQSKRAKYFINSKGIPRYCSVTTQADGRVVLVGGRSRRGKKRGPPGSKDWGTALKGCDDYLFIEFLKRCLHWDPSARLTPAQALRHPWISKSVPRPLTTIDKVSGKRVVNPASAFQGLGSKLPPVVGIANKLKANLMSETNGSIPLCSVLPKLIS
# [11] = target: Dual specificity protein kinase CLK2 (Homo sapiens, UniProt P49760)
# Chain of Dual specificity protein kinase CLK2 (P49760 whole entry): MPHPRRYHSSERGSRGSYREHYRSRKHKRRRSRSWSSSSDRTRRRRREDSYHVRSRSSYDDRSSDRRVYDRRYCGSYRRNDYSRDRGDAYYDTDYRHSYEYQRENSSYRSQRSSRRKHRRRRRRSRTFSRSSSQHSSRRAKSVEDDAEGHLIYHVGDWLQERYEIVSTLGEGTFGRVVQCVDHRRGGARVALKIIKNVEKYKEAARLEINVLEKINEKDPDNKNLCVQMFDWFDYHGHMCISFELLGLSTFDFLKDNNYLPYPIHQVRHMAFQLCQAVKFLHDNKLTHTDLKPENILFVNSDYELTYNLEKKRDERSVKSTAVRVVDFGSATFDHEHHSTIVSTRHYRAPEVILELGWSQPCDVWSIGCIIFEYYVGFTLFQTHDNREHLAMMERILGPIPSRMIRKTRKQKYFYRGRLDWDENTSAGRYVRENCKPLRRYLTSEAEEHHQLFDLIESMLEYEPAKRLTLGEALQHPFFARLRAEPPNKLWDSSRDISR
# Chain of Dual specificity protein kinase CLK1 (P49759 whole entry): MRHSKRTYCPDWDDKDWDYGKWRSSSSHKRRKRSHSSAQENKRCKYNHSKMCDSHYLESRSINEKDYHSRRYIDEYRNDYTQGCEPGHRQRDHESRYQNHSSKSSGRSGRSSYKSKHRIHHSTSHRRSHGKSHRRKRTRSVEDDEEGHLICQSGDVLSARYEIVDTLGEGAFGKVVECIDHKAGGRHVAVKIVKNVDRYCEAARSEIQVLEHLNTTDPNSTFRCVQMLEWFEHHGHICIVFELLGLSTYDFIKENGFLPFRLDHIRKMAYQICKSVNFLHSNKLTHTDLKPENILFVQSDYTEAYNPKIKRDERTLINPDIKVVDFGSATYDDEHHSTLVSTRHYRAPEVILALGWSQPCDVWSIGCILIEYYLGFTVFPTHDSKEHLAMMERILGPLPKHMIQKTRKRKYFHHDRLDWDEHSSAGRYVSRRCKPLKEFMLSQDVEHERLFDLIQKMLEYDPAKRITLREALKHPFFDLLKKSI
# Chain of Dual specificity protein kinase CLK4 (Q9HAZ1 whole entry): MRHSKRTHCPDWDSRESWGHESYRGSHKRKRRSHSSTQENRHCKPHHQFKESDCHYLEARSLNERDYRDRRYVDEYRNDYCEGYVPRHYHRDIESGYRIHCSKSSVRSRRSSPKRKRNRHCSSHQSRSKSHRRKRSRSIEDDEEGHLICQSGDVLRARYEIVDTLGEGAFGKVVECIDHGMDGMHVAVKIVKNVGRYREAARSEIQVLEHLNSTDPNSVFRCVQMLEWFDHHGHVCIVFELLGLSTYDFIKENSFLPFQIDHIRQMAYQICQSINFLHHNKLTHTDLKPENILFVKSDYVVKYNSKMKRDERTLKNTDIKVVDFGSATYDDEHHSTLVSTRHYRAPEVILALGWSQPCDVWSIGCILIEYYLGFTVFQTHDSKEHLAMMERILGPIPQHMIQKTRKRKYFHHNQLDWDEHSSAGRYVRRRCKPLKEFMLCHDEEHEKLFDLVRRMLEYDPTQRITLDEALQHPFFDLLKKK
# Chain of Cyclin-dependent kinase 5 (Q00535 whole entry): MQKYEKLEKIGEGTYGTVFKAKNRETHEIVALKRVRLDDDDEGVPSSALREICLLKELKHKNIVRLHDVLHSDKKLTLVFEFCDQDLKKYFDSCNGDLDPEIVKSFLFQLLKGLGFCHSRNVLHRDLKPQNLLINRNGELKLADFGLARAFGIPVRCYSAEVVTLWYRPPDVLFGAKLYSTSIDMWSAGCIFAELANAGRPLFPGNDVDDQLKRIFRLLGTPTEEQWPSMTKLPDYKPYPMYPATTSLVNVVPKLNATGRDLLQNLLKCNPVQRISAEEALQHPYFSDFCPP
# Chain of Dual specificity protein kinase CLK3 (P49761 whole entry): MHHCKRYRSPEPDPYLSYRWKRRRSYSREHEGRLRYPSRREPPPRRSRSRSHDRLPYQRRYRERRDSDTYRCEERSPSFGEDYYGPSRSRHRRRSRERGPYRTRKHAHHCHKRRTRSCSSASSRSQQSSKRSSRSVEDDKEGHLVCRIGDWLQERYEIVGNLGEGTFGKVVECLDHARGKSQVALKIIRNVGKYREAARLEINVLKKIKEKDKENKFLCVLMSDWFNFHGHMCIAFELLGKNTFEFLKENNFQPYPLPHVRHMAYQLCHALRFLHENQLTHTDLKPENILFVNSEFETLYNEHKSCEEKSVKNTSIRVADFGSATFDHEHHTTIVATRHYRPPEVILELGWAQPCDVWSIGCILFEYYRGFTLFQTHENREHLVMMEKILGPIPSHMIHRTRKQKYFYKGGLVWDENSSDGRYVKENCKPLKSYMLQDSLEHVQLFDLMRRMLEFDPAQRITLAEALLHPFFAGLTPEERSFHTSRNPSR
# Chain of Dual specificity tyrosine-phosphorylation-regulated kinase 1B (Q9Y463 whole entry): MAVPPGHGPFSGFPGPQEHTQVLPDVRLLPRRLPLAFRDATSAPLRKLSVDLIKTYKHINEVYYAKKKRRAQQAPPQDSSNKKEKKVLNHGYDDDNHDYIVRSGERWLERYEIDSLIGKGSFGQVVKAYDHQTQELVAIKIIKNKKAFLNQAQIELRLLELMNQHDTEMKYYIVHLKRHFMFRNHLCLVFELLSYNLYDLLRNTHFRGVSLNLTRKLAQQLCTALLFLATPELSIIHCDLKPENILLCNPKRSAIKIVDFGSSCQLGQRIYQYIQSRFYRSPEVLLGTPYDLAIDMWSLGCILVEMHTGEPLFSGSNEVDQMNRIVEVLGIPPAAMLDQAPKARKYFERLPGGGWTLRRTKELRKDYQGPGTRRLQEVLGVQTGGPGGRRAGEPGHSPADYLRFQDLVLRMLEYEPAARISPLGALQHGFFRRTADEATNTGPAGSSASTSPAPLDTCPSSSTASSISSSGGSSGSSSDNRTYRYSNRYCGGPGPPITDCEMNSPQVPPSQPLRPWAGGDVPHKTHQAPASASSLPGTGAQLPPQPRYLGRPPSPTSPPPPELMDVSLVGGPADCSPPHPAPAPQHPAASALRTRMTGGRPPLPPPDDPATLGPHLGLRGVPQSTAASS
Structure (SMILES),IC50 [1],IC50 [2],IC50 [3],IC50 [4],further results
COC[C@@H](CC(C)C)NC1=N/C(=C\c2ccc3scnc3c2)C(=O)N1C,> 10000 nM,> 10000 nM,> 10000 nM,> 10000 nM,
COC[C@@H](CC(C)C)NC1=N/C(=C\c2ccc3nc(C)sc3c2)C(=O)N1,,,,52.7 nM,
COC[C@@H](CC(C)C)NC1=N/C(=C\c2ccc3[nH]cnc3c2)C(=O)N1C,,,112 nM,2.1 nM,
CCN1C(=O)/C(=C/c2ccc3ncsc3c2)N=C1N[C@@H](COC)CC(C)C,200 nM,,,58.5 nM,IC50 [5]: > 10000 nM; IC50 (Casein kinase I): > 10000 nM; IC50 [6]: 165 nM; IC50 [7]: 1360 nM; IC50 [8]: 7867 nM; IC50 [9]: 2560 nM
COC[C@@H](CC(C)C)NC1=N/C(=C\c2ccc3c(c2)CCO3)C(=O)N1C,,170 nM,488 nM,578 nM,
COC[C@@H](CC(C)C)NC1=N/C(=C\c2ccc3c(c2)ncn3C)C(=O)N1,> 10000 nM,> 10000 nM,> 10000 nM,> 10000 nM,
COC[C@@H](CC(C)C)NC1=N/C(=C\c2ccc3c(cnn3C)c2)C(=O)N1,,358 nM,,189 nM,
COC[C@@H](CC(C)C)NC1=N/C(=C\c2ccc3c(ccn3C)c2)C(=O)N1C,> 10000 nM,> 10000 nM,> 10000 nM,> 10000 nM,
COC[C@@H](CC(C)C)NC1=N/C(=C/c2ccc3ncoc3c2)C(=O)N1C,18.8 nM,,,16.3 nM,
COC[C@@H](CC(C)C)NC1=N/C(=C\c2ccc3c(c2)ncn3C)C(=O)N1C,> 10000 nM,> 10000 nM,> 10000 nM,> 10000 nM,
COC[C@@H](CC(C)C)NC1=N/C(=C\c2ccc3nc(C)sc3c2)C(=O)N1C,496 nM,,511 nM,673 nM,
COC[C@@H](CC(C)C)NC1=N/C(=C\c2ccc3ncn(C)c3c2)C(=O)N1,38.2 nM,,78.7 nM,11.7 nM,
CN1C(=O)/C(=C/c2ccc3c(c2)OCO3)N=C1N [LEUCETTAMINE B],,,,,IC50 (Casein kinase I): > 10000 nM; IC50 [8]: > 10000 nM
COC[C@@H](CC(C)C)NC1=N/C(=C\c2ccc3c(cnn3C)c2)C(=O)N1C,408 nM,,399 nM,,
COC[C@@H](CC(C)C)NC1=N/C(=C\c2ccc3nn(C)cc3c2)C(=O)N1C,258 nM,,,153 nM,
COC[C@@H](CC(C)C)NC1=N/C(=C\c2ccc3nnsc3c2)C(=O)N1,,,,268 nM,
COC[C@@H](CC(C)C)NC1=N/C(=C\c2ccc3ncsc3c2)C(=O)N1C,,9.6 nM and 16.6 nM,,11.6 nM and 12.4 nM,IC50 [5]: > 10000 nM; IC50 (Casein kinase I): > 10000 nM; IC50 [8]: 4481 nM; IC50 [9]: 525 nM
COC[C@@H](CC(C)C)NC1=N/C(=C\c2ccc3[nH]ccc3c2)C(=O)N1C,,,3930 nM,> 10000 nM,
COC[C@@H](CC(C)C)NC1=N/C(=C\c2ccc3ncsc3n2)C(=O)N1,33.6 nM,85 nM,36.5 nM,26.4 nM,IC50 [5]: > 10000 nM; IC50 (Casein kinase I): > 10000 nM; IC50 [6]: 4360 nM; IC50 [7]: 219 nM; IC50 [8]: 4270 nM; IC50 [9]: 4780 nM; IC50 [10]: 1380 nM
COC[C@@H](CC(C)C)NC1=N/C(=C\c2ccc3ncsc3c2)C(=O)N1C1CCCCC1,> 10000 nM,> 10000 nM,,4910 nM,IC50 [5]: > 10000 nM; IC50 (Casein kinase I): > 10000 nM; IC50 [6]: 3970 nM; IC50 [7]: > 10000 nM; IC50 [8]: > 10000 nM; IC50 [9]: > 10000 nM; IC50 [11]: > 10000 nM
COC[C@@H](CC(C)C)NC1=N/C(=C\c2cnc3ncsc3c2)C(=O)N1,> 10000 nM,,,> 10000 nM,IC50 [5]: > 10000 nM; IC50 (Casein kinase I): > 10000 nM; IC50 [6]: > 10000 nM; IC50 [7]: > 10000 nM; IC50 [8]: > 10000 nM; IC50 [9]: > 10000 nM; IC50 [11]: > 10000 nM
COC[C@@H](CC(C)C)NC1=N/C(=C\c2ccc3ncsc3c2)C(=O)N1C1CCC1,1420 nM,,5620 nM,1210 nM,IC50 [5]: > 10000 nM; IC50 (Casein kinase I): > 10000 nM; IC50 [6]: 581 nM; IC50 [7]: 4690 nM; IC50 [8]: > 10000 nM; IC50 [10]: 5320 nM
COC[C@@H](CC(C)C)NC1=N/C(=C\c2ccc3[nH]ncc3c2)C(=O)N1C,,134 nM,196 nM,166 nM,
COC[C@@H](CC(C)C)NC1=N/C(=C\c2ccc3nnsc3c2)C(=O)N1C,734 nM,751 nM,950 nM,861 nM,
COC[C@@H](CC(C)C)NC1=N/C(=C\c2ccc3ncn(C)c3c2)C(=O)N1C,37.6 nM,,,,

# More lines, main results first:
IC50 [1],IC50 [2],IC50 [3],IC50 [4],Structure (SMILES),further results
13.9 nM,,,,CC(C)C[C@H](CO)NC1=N/C(=C\c2ccc3ncsc3c2)C(=O)N1,IC50 [5]: > 10000 nM; IC50 (Casein kinase I): > 10000 nM; IC50 [6]: 635 nM; IC50 [7]: 461 nM; IC50 [8]: 2320 nM; IC50 [9]: 510 nM; IC50 [10]: 310 nM
14.2 nM,,,,COC[C@@H](CC(C)C)NC1=N/C(=C\c2ccc3ncoc3c2)C(=O)N1,
> 10000 nM,8170 nM,,> 10000 nM,COC[C@@H](CC(C)C)NC1=N/C(=C\c2ccc3c(ccn3C)c2)C(=O)N1,
310 nM,115 nM,,245 nM,COC[C@@H](CC(C)C)NC1=N/C(=C\c2ccc3[nH]ncc3c2)C(=O)N1,
191 nM,78.3 nM,,,COC[C@@H](CC(C)C)NC1=N/C(=C\c2ccc3nn(C)cc3c2)C(=O)N1,
56.7 nM,71.6 nM,11.6 nM,14 nM,COC[C@@H](CC(C)C)NC1=N/C(=C\c2ccc3c(c2)CCO3)C(=O)N1,
104 nM,1080 nM,76.6 nM,41.2 nM,COC[C@@H](CC(C)C)NC1=N/C(=C\c2ccc3[nH]cnc3c2)C(=O)N1,
,> 10000 nM,4790 nM,> 10000 nM,COC[C@@H](CC(C)C)NC1=N/C(=C\c2ccc3[nH]ccc3c2)C(=O)N1,
131 nM,41.1 nM,53.5 nM,77.1 nM,COC[C@@H](CC(C)C)NC1=N/C(=C\c2ccc3c(c2)OCO3)C(=O)N1C,
38.7 nM,,,,CC(C)C[C@@H](CO)NC1=N/C(=C\c2ccc3ncsc3c2)C(=O)N1,IC50 [5]: > 10000 nM; IC50 (Casein kinase I): > 10000 nM; IC50 [6]: 2840 nM; IC50 [7]: 474 nM; IC50 [8]: 8165 nM; IC50 [9]: 5180 nM; IC50 [10]: 493 nM
,,,10 nM,O=C1NC(Nc2ccccc2)=N/C1=C\c1ccc2c(c1)OCO2,IC50 (Casein kinase I): > 10000 nM; IC50 [7]: 5840 nM; IC50 [8]: 1544 nM; IC50 [9]: 507 nM
1 nM,23 nM,5 nM,13.5 nM,COC[C@@H](CC(C)C)NC1=N/C(=C\c2ccc3c(c2)OCO3)C(=O)N1,
